Experiment [1] has as its target T1, Polyadenylate-binding protein 1 (Homo sapiens, UniProt P11940). In words: PABP1 MLLE–PAM2 interaction inhibitors, dose response, miRNA deadenylation inhibitor project, biochemical, fluorescence polarization, Cy5-PAM2 peptide, secondary (AID 602260). It counts as functional. The following applies: read-out: IC50_Mean.
The target in experiment [2] is T2, Rac GTPase-activating protein 1 (Homo sapiens, UniProt Q9H0H5).
T2 sequence (Q9H0H5 whole entry): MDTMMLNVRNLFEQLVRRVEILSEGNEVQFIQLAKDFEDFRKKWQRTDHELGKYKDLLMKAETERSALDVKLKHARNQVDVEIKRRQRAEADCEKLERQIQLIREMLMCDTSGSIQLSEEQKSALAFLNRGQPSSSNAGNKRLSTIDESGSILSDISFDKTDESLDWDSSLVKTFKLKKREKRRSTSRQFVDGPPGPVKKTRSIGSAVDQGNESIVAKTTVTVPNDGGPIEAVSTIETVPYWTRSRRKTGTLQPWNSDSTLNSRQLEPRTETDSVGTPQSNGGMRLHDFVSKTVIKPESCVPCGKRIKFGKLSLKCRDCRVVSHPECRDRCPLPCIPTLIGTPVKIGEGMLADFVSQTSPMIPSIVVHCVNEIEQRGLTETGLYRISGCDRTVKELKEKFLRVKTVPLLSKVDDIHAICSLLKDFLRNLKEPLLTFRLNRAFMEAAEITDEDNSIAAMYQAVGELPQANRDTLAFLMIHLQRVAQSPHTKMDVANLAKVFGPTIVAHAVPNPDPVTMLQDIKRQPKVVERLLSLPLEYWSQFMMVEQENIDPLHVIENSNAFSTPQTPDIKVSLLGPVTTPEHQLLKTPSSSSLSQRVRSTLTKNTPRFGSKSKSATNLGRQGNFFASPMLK
The experiment in a line: MgcRacGAP GTPase-activating activity inhibitors, confirmation, biochemical, ADP Hunter fluorescence, primary and confirmatory (AID 624330). It counts as functional.

Experiment [3] has as its target T3, Voltage-gated N-type calcium channel alpha-1B subunit/Amyloid beta A4 precursor protein-binding family A member 1 (Homo sapiens, UniProt Q00975+Q02410). It counts as protein assay.
For experiment [4], the target named is T1, Polyadenylate-binding protein 1. The experiment in a line: PABP1 MLLE–PAM2 binding inhibitor potency, dose response, biochemical, fluorescence polarization, FITC-PAM2 peptide (AID 602259). It counts as functional. The following applies: read-out: IC50_Mean. Background: In fluorescence polarisation assays a small probe gives low polarisation when free and higher when bound to something large.

For experiment [5], the target named is T3, Voltage-gated N-type calcium channel alpha-1B subunit/Amyloid beta A4 precursor protein-binding family A member 1. It counts as protein assay. This is another data set of the same source.
Experiment [6] addresses Genome polyprotein (dengue virus type 2, UniProt P29990). In words: Dengue-2 NS5 methyltransferase inhibitors, primary screen, biochemical, confirmation dose response (AID 588689). It counts as functional.
Experiment [7] has as its target DNA damage-inducible transcript 3 protein (Mus musculus, UniProt P35639). It counts as functional, Cricetulus griseus.
In experiment [8] the target is Troponin, cardiac muscle (Homo sapiens, UniProt P19429+P45379+P63316). The experiment in a line: Fluorescence-based biochemical high throughput dose response assay for activators of the calcium sensitivity of cardiac Regulated Thin Filaments (RTF). [Related pubchem assays (depositor defined):AID493008, AID493018, AID504382, AID504383]. It counts as protein-complex assay.

Experiment [9] is described as follows: cells.
For experiment [10], the target named is T4, Ubiquitin-conjugating enzyme E2 N (Homo sapiens, UniProt P61088).
T4 sequence (P61088 whole entry): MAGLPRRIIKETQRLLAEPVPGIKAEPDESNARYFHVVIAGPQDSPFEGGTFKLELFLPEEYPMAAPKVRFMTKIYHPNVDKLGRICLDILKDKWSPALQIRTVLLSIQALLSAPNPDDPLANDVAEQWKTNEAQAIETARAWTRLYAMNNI
It counts as functional.

Experiment [11] in a line: inhibitors of intracellular T. cruzi replication, confirmation, NIH3T3 host cells, beta-gal luminescence (AID 2044).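 Also: intracellular parasites grown in NIH/3T3 mouse fibroblasts as host cells; luminescent beta-galactosidase reporter signal from transgenic T. cruzi replicating inside host cells; inhibitors lower the luminescence signal.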 It counts as functional, cell-based.
The target in experiment [12] is T4, Ubiquitin-conjugating enzyme E2 N. It counts as functional. The source holds these as a separate data set.
Experiment [13] in a line: cytotoxicity toward NIH3T3 fibroblasts, dose response, counter-screen, cell-based, ATP luminescence, mouse fibroblasts (AID 2010).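 Also: cells exposed to compound for about 90 hours before reading.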 It counts as functional. (In general: The purpose of a counterscreen is to sort out artefacts and off-target activity.)
The target of experiment [14] is T5, Bcl-2-related protein A1 (Mus musculus, UniProt Q07440).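 Also: confirmatory dose–response counterscreen on Bfl-1, used to check hits from a UBC13 polyubiquitin inhibitor campaign.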
T5 sequence (Q07440 whole entry): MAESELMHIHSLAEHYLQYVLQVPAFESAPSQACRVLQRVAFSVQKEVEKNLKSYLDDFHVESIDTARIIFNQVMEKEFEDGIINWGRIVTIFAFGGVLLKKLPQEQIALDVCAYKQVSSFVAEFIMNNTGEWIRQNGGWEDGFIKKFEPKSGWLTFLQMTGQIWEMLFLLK
It counts as functional.

Experiment [15] concerns the target DNA dC->dU-editing enzyme APOBEC-3A (Homo sapiens, UniProt P31941). In words: Dose Response confirmation of small molecule APOBEC3A DNA Deaminase Inhibitors via a fluorescence-based single-stranded DNA deaminase assay. [Related pubchem assays (depositor defined):AID493011, AID493024]. It counts as functional.
For experiment [16], the target named is Large T antigen (Simian virus 40, UniProt P03070). It counts as functional, Betapolyomavirus macacae.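 Also: Confirmatory-stage PubChem screen for compounds that inhibit SV40 T antigen.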
In experiment [17] the target is DNA dC->dU-editing enzyme APOBEC-3G (Homo sapiens, UniProt Q9HC16). It counts as functional.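 Also: Dose-response counterscreen measuring inhibition of APOBEC3G DNA deaminase activity, run while confirming APOBEC3A inhibitors.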
Experiment [18] in a line: growth suppression of PTEN-null colon cells, dose response, cell-based, HCT116 PTEN knockout (AID 1047).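 Also: HCT116 colon tumor cells with PTEN knocked out; cells exposed to compound for 60 hours before readout; potency for loss of cell viability measured by luminescence.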 It counts as functional.
Experiment [19] in a line: growth suppression of beta-catenin-knockout colon cells, dose response, cell-based, HCT116, human colon tumor (AID 1045).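 Also: HCT116 colon tumor cells with beta catenin knocked out; cells exposed to compound for 60 hours.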 It counts as functional.
For experiment [20], the target named is Beta-galactosidase (Escherichia coli, UniProt Q8VNN2). In words: Dose response counterscreen for EBI2 assay utilizing the enzyme, b-galactosidase. It counts as functional.
Experiment [21] addresses G-protein coupled receptor 55 (Homo sapiens, UniProt Q9Y2T6). The experiment in a line: GPR55 antagonists blocking LPI-driven arrestin recruitment, primary screen, imaging, U2OS, beta-arrestin-GFP, LPI agonist (AID 2013).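 Also: antagonist potency measured as reduced agonist-driven arrestin aggregation.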 It counts as functional. Background: Recruitment of arrestin is a read-out of receptor activation apart from second messengers.
Experiment [22] concerns the target FAD-linked sulfhydryl oxidase ALR (Homo sapiens, UniProt P55789). In words: inhibitors of human ALR sulfhydryl oxidase, dose response, biochemical, H2O2 detection, luminescence, cherry-pick (AID 493248).
In experiment [23] the target is Intestinal-type alkaline phosphatase (Mus musculus, UniProt P24822). The experiment in a line: PubChem AID 488785. It counts as functional.
Sequence of Intestinal-type alkaline phosphatase (Mus musculus, UniProt P24822) (P24822 whole entry): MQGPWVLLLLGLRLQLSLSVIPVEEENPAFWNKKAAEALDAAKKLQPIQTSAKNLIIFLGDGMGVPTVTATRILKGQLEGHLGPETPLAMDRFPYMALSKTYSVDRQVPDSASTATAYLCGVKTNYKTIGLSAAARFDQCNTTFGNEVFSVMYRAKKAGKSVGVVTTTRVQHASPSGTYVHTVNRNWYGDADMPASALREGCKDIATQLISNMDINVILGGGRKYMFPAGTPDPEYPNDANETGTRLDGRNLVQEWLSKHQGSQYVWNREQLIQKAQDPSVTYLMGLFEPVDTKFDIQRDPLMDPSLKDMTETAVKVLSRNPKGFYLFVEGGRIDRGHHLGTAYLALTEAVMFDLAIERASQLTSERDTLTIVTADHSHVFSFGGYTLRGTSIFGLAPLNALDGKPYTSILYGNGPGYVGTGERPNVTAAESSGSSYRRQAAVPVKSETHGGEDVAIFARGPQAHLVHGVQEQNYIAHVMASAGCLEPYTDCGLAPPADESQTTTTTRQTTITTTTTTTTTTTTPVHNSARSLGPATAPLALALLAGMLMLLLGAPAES
For experiment [24], the target named is Intestinal-type alkaline phosphatase (Homo sapiens, UniProt P09923). In words: inhibition of human intestinal alkaline phosphatase – biochemical, dose response (AID 488876). It counts as functional.
Sequence of Intestinal-type alkaline phosphatase (Homo sapiens, UniProt P09923) (P09923 whole entry): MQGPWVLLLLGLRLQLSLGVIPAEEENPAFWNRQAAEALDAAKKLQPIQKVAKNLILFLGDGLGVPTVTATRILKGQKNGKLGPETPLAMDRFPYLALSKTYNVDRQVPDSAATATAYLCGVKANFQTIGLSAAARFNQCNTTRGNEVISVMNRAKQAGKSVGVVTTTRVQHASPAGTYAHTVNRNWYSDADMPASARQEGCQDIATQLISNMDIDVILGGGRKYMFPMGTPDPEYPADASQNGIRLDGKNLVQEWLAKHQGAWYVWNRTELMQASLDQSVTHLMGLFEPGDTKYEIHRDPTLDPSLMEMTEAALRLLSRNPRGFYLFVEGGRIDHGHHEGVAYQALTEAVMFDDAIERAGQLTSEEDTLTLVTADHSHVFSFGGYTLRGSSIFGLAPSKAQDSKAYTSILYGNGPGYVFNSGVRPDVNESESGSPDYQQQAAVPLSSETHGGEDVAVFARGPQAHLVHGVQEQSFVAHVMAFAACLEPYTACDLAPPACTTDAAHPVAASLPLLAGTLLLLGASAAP
Experiment [25] has as its target T6, Alkaline phosphatase, tissue-nonspecific isozyme (Homo sapiens, UniProt P05186).
T6 sequence (P05186 whole entry): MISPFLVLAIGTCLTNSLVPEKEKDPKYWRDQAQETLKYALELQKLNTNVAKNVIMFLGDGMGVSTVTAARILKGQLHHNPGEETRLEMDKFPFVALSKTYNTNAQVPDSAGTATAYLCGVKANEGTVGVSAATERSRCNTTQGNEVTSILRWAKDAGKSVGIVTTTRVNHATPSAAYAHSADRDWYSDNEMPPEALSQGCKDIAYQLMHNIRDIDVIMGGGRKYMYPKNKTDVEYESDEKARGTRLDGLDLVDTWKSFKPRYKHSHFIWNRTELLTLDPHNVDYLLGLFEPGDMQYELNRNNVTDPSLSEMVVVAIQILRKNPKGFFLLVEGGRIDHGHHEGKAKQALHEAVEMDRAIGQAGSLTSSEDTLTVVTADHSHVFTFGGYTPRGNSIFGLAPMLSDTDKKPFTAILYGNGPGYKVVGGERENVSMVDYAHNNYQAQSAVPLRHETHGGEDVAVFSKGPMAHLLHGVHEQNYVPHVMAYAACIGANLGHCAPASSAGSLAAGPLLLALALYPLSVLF
In words: TNAP enzyme inhibition by screening hits, dose response, selectivity assay for mouse IAP inhibitor project, biochemical, human TNAP, uHTS hits (AID 488906). It counts as functional.

The nature of experiment [26]: Luminescence Cell-Based Dose Retest to Confirm Inhibitors of Cancer Stem Cells. [Related pubchem assays (depositor defined):AID2717, AID2721]. It counts as functional. As to conditions: Homo sapiens.

The source made the active and inactive calls. A value given as a limit tells only on which side of the number the result lay.

The EC50 is the concentration that produces a half-maximal response. By AC50 is commonly meant the midpoint of the concentration-response curve, whichever way the signal moves.

T3 sequence (Q00975 whole entry): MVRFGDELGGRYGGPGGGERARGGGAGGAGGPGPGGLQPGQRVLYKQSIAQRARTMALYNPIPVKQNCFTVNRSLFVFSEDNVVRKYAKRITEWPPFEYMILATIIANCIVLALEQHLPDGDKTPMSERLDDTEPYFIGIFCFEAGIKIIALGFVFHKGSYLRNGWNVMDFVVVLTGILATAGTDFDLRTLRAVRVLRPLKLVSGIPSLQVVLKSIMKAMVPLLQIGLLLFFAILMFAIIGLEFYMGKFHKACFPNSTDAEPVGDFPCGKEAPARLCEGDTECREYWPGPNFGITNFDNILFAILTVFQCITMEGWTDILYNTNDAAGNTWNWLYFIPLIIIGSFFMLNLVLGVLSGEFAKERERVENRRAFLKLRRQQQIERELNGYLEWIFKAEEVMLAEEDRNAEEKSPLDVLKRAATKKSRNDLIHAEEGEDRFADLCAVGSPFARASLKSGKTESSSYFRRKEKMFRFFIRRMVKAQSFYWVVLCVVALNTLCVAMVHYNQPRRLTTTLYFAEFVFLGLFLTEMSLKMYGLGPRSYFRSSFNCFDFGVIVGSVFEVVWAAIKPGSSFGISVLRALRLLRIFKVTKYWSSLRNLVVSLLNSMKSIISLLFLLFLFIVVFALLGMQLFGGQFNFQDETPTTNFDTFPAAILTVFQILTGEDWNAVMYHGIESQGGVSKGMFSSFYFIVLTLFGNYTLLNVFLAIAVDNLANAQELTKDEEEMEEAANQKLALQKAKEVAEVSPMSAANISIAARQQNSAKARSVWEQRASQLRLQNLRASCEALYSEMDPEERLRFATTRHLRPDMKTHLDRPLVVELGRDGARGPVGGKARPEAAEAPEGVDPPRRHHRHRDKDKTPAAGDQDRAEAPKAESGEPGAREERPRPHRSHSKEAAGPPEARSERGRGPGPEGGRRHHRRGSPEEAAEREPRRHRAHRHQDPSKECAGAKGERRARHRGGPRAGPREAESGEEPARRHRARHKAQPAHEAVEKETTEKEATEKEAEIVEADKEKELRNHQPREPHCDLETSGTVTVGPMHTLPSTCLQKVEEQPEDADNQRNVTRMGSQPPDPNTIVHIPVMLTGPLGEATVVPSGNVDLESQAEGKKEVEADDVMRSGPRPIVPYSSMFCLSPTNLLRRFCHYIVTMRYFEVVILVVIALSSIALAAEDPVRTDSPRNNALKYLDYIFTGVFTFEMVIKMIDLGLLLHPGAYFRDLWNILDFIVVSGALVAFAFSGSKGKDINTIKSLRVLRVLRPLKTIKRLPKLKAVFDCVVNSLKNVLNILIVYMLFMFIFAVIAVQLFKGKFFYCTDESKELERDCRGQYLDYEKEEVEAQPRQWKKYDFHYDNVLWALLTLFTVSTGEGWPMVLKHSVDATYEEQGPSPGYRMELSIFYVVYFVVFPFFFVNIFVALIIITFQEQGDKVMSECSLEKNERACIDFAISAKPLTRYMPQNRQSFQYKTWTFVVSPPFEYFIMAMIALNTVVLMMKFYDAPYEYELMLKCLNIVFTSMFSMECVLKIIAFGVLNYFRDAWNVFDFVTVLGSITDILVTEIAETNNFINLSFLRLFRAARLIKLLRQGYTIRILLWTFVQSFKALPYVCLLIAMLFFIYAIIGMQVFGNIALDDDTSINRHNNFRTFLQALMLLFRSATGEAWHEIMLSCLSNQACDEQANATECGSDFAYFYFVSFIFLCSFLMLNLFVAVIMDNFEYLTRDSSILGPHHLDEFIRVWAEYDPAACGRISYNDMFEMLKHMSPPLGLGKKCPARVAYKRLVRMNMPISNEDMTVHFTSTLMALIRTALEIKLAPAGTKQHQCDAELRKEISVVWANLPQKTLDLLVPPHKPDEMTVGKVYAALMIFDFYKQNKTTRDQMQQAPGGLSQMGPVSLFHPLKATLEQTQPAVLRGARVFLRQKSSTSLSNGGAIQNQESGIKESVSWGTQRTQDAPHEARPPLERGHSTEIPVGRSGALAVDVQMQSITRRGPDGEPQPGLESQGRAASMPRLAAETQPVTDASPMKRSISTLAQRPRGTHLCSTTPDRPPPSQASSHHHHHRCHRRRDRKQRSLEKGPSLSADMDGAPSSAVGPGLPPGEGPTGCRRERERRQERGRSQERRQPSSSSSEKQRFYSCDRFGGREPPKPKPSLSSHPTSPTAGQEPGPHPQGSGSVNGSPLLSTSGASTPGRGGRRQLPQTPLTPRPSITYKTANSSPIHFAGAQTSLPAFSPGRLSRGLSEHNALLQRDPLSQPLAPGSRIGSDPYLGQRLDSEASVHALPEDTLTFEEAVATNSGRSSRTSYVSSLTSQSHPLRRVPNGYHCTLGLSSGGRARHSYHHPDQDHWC
T3 sequence (Q02410 whole entry): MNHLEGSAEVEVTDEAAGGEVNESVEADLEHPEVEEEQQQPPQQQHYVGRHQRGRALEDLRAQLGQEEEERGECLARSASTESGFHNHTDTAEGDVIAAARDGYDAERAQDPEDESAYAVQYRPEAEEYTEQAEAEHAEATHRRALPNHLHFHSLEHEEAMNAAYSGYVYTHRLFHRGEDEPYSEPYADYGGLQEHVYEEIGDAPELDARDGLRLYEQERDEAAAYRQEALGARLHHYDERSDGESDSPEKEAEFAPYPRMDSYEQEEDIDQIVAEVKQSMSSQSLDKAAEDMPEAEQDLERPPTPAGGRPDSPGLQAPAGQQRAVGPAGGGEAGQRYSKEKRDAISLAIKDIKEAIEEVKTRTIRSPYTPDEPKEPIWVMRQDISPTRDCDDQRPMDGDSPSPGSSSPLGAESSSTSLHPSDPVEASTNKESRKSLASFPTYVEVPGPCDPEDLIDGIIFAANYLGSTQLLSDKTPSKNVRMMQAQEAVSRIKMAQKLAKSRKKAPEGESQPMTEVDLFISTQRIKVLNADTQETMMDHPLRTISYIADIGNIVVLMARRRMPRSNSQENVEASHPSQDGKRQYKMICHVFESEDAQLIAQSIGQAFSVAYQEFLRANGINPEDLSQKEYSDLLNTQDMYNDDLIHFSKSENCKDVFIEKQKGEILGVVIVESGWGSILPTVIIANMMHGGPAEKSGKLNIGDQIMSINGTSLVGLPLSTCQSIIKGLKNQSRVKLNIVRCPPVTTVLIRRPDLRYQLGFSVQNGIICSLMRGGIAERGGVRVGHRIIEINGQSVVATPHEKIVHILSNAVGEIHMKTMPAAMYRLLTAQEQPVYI
T1 sequence (P11940 whole entry): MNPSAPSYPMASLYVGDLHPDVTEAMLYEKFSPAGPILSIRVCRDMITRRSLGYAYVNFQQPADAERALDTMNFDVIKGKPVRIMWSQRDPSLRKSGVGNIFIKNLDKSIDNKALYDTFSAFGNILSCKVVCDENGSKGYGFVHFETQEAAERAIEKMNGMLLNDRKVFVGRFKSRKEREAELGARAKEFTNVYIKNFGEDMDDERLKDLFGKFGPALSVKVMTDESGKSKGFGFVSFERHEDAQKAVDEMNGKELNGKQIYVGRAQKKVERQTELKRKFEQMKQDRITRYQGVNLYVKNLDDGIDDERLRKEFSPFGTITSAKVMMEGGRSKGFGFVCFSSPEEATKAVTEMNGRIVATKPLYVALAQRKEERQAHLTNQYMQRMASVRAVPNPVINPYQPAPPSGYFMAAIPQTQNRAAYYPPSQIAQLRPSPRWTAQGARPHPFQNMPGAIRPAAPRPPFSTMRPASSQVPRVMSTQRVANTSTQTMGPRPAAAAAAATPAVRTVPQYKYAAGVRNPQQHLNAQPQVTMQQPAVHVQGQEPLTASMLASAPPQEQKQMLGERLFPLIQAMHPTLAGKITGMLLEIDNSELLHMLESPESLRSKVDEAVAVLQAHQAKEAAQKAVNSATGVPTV
Sequence of DNA dC->dU-editing enzyme APOBEC-3A (P31941 whole entry): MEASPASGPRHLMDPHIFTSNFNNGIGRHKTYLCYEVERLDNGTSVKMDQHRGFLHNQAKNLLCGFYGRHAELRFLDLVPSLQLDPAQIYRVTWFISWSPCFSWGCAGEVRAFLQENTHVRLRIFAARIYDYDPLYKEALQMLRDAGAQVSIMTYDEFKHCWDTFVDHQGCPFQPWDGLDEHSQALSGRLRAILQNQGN

As for `O=C(O)CCn1cc(C=C2C(=O)NC(=S)NC2=O)c(-c2ccccc2)n1`, the IC50 in [1] was > 66 µM (inactive); in experiment [2], 86.5 µM (active); in [3], 13.1 µM (active); in experiment [4], > 66 µM (inactive); in experiment [5], 19.8 µM (active); in experiment [6], 7.65 µM (active).
`CCOC(=O)c1sc(NN=C2C(=O)NC(=O)NC2=O)c(C(=O)OCC)c1C`: the “Absolute IC50 (CHOP)” value in experiment [7] came out at 10 µM.
Take `O=C(CSc1nnc(COc2ccccc2)o1)N1CCN(c2ccccc2)CC1`: the EC50 in experiment [8] is > 71.5 µM (inactive).
For `COc1cc2nc(N(CCCN(C)C)C(=O)c3ccc(S(=O)(=O)N4CCc5ccccc5C4)cc3)sc2cc1OC`, the EC50 was 0.569 µM (active) in experiment [9], < 0.1 µM (active) in experiment [11] and > 60 µM (not active) in experiment [13]. Moreover, the IC50 was 8.3 µM (active) in [10], 8.69 µM (active) in experiment [12] and > 20 µM (inactive) in [14].
Consider `O=C1NC(=O)N(CCc2ccc(F)cc2)C(=O)/C1=C/c1ccco1`, for which the IC50 in [15] was 15 µM (active); in experiment [16], 12.3 µM (active); in experiment [17], 20.5 µM (active); in experiment [3], 14.8 µM (active); in [5], > 50 µM (inactive).
Take `CC1=C(C)C[S+]([O-])N(S(=O)(=O)c2ccccc2)C1` (configuration not stated): the IC50 was 19 µM (active) in experiment [16], 41.7 µM (active) in [3] and > 50 µM (inactive) in experiment [5].
On to `C=CCNC(=O)/C(C#N)=C/c1ccc(OS(=O)(=O)c2ccc(C)cc2)c(OC)c1`, for which the EC50 in [18] was 28.1 µM (active); in experiment [19] it was 26.6 µM (active). In addition, the figures for the IC50 in [20] and in experiment [21] were > 80 µM (inactive) and 1.93 µM (active), respectively.
On to `Cc1cc(O)c(Sc2nc[nH]n2)cc1NS(=O)(=O)c1ccc(Cl)cc1`, for which the AC50 in experiment [22] is 1.52 µM (active). Also, the IC50 in experiment [23] is 5.84 µM (active); in [24], > 100 µM (inactive); in [25], 92.6 µM (active).
Consider `C#CCOCCOCCOCCNc1nc(N2CCN(C(=O)CCCCCCCCCCNC(=O)Cn3cc(C[C@@H](C)O)nn3)CC2)nc(N2CCN(C(=O)CCCCCCCCCCNC(=O)[C@@H](CCSC)n3cc(CCO)nn3)CC2)n1`, for which the IC50 was 27.6 µM (active) in experiment [23], 36.3 µM (active) in [24] and 27.3 µM (active) in experiment [25].
With `C#CCOCCOCCOCCNc1nc(N2CCN(C(=O)CCCCCCCCCCNC(=O)Cn3cc(C[C@@H](C)O)nn3)CC2)nc(N2CCN(C(=O)CCCCCCCCCCNC(=O)[C@H](CCCCN)n3cc(C[C@@H](C)CC)nn3)CC2)n1`, the IC50 is 4.71 µM (active) in [23], > 100 µM (inactive) in [24] and 95.5 µM (active) in experiment [25]. The concentration at half-maximal activity (AC50) in [26] was 7.11 µM (active).
